In ChEMBL document CHEMBL1821683, “Synthesis of rhodamine B-benzenesulfonamide conjugates and their inhibitory activity against human α- and bacterial/fungal β-carbonic anhydrases” (Bioorg Med Chem Lett, 2011) one finds Ki data, which are given here for four compounds.

Targets include Carbonic anhydrase 1 (Homo sapiens, UniProt P00915); Carbonic anhydrase 7 (Homo sapiens, UniProt P43166); Carbonic anhydrase 9 (Homo sapiens, UniProt Q16790).
The next test concerns the target Carbonic anhydrase 2 (Homo sapiens, UniProt P00918). The experiment in a line: Inhibition of human carbonic anhydrase 2 preincubated for 15 mins at pH 7.5 by stopped flow CO2 hydration method.
In the next test the target is T1, Carbonic anhydrase (Candida albicans (strain SC5314 / ATCC MYA-2876) (Yeast), UniProt Q5AJ71).
T1 sequence (Q5AJ71 whole entry): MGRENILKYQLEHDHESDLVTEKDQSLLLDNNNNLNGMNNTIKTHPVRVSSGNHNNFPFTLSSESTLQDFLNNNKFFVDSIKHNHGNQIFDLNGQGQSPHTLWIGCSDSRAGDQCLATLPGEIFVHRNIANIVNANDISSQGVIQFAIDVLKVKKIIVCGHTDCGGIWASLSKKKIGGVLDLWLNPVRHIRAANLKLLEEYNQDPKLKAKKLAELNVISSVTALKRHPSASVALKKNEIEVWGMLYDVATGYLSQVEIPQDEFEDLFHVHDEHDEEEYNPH

For another test, the target named is Carbonic anhydrase 12 (Homo sapiens, UniProt O43570). The experiment in a line: Inhibition of human carbonic anhydrase 12 preincubated for 15 mins at pH 7.5 by stopped flow CO2 hydration method.
Carbonic anhydrase 12, sequence (O43570 whole entry): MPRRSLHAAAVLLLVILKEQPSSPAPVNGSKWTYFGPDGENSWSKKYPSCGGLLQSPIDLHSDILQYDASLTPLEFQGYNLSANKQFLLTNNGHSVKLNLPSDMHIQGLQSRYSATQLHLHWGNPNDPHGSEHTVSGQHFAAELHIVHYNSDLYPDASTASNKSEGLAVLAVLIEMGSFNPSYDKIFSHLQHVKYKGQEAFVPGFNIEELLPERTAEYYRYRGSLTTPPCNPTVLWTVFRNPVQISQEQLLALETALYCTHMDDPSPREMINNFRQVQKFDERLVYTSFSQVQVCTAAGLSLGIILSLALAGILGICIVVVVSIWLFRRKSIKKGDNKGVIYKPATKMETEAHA

SMILES strings stand for the structures. pKi: −log10 of the molar value.

Carbonic anhydrase 1, sequence (P00915 whole entry): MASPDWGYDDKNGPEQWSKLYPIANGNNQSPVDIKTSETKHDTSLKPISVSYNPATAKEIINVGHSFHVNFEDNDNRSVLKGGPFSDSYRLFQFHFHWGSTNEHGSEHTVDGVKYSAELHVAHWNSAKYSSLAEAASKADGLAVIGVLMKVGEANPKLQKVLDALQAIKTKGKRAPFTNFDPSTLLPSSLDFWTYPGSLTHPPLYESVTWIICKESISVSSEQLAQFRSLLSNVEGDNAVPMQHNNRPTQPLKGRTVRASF
Carbonic anhydrase 7, sequence (P43166 whole entry): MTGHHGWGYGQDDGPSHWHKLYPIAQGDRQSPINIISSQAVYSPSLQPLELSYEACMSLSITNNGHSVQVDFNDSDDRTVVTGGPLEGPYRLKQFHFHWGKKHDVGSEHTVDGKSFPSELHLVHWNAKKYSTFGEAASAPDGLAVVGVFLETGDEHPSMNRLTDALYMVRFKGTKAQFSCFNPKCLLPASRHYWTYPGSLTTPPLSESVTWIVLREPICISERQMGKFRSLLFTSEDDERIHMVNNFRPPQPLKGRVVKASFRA

By pKi is commonly meant −log10 of the Ki, conventionally taken in molar units. A lower pKi goes with a high Ki. In the case of `CCN(CC)c1ccc2c(c1)Oc1cc(N(CC)CC)ccc1C21c2ccccc2C(=O)N1c1ccc(S(N)(=O)=O)cc1`, the pKi is 6.55 on Carbonic anhydrase 2; 5.30 on Carbonic anhydrase; 6.29 on Carbonic anhydrase 1; 8.04 at Carbonic anhydrase 12; 7.22 on Carbonic anhydrase 7.
As for `CCN(CC)c1ccc2c(c1)Oc1cc(N(CC)CC)ccc1C21c2ccccc2C(=O)N1CCc1ccc(S(N)(=O)=O)cc1`, the pKi on Carbonic anhydrase 2 was 6.02; at Carbonic anhydrase, 5.33; at Carbonic anhydrase 1 it was 6.16; on Carbonic anhydrase 12, 7.60; on Carbonic anhydrase 9 it was 7.71; on Carbonic anhydrase 7 it was 7.04.
With `CCN(CC)c1ccc2c(c1)Oc1cc(N(CC)CC)ccc1C21c2ccccc2C(=O)N1c1cccc(S(N)(=O)=O)c1`, the negative logarithm of the Ki (pKi) on Carbonic anhydrase 2 is 7.67; on Carbonic anhydrase it was 5.39; at Carbonic anhydrase 1 it was 6.51; at Carbonic anhydrase 12 it was 7.98; on Carbonic anhydrase 9, 7.62; on Carbonic anhydrase 7, 7.92.
Take `CCN(CC)c1ccc2c(c1)Oc1cc(N(CC)CC)ccc1C21c2ccccc2C(=O)N1Cc1ccc(S(N)(=O)=O)cc1`: the pKi on Carbonic anhydrase 2 was 6.01; at Carbonic anhydrase, 5.27; at Carbonic anhydrase 1 it was 6.15; at Carbonic anhydrase 12 it was 8.07; on Carbonic anhydrase 9 it was 7.99; on Carbonic anhydrase 7, 7.46.
